# Biological target: EZH2 (Homo sapiens (Human), UniProt Q15910)
# Experiment: PRC2 enzyme assay on peptide substrates
# Format: biochemical
# Settings: PRC2 enzyme assays on peptide substrates; 4 nM enzyme, 30 min preincubation at 25° C.; read-out: EZH2 IC50
# Sequence of EZH2 (Q15910 other isoform, or with tags, fused parts or gaps): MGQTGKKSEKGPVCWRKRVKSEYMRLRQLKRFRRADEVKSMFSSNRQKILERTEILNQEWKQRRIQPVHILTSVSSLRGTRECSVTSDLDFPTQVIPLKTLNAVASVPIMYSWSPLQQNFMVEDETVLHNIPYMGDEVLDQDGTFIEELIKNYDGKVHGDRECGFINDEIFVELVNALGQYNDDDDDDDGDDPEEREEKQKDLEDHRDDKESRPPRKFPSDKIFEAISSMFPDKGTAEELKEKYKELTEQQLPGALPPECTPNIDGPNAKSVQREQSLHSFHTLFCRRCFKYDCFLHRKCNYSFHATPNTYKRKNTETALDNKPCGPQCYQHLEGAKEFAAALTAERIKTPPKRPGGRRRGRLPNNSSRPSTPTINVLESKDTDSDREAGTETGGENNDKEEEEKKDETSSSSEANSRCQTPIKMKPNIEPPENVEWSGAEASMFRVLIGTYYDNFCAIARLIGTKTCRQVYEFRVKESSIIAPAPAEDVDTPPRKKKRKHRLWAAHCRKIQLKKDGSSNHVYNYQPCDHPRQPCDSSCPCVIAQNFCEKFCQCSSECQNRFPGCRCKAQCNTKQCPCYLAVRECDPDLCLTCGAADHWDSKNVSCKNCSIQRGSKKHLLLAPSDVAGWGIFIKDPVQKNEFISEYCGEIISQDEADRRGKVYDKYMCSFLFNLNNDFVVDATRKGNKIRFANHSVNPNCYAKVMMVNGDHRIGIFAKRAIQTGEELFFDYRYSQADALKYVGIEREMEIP
# Sequence of EZH2 (O75530 whole entry partner): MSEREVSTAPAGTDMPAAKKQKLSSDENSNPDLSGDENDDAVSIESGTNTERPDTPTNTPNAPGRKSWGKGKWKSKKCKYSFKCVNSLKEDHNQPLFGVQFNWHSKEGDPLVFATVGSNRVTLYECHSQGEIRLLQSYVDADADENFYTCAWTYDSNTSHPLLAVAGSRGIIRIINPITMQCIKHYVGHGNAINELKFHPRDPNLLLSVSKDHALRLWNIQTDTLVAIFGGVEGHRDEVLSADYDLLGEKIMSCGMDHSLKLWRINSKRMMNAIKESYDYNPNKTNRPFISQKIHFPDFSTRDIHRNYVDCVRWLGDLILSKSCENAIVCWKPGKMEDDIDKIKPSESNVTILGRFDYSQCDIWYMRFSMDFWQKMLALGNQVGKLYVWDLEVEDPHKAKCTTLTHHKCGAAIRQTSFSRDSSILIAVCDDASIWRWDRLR
# Sequence of EZH2 (Q15022 whole entry partner): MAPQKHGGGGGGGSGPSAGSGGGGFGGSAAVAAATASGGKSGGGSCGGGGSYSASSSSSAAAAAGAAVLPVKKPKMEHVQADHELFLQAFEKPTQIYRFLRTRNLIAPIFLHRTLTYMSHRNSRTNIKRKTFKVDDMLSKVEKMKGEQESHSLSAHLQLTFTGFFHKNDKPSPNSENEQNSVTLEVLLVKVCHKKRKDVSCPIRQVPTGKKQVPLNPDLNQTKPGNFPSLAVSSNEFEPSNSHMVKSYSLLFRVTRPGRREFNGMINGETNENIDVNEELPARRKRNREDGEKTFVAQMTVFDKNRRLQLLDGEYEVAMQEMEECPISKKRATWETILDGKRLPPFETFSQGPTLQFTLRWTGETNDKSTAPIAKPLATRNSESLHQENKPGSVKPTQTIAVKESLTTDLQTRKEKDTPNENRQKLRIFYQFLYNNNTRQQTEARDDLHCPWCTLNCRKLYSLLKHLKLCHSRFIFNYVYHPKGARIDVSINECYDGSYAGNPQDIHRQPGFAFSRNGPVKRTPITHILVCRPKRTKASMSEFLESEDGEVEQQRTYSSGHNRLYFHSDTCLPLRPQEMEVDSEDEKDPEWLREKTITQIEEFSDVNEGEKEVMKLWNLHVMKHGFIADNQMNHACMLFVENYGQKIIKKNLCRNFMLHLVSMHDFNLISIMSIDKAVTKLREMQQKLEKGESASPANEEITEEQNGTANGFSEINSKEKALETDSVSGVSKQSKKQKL
# Sequence of EZH2 (Q09028 whole entry partner): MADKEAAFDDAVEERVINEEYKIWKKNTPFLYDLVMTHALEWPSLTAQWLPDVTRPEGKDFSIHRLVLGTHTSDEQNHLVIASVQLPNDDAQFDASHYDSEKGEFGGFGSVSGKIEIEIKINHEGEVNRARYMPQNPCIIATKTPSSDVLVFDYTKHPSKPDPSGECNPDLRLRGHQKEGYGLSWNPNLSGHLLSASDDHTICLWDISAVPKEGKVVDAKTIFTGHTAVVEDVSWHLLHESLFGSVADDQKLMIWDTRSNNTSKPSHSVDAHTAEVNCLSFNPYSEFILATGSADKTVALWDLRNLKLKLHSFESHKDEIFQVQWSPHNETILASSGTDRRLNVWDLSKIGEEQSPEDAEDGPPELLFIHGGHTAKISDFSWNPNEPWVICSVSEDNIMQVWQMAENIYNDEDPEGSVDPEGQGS
row,SMILES,IC50
1,Cc1cc(C)c(CNC(=O)c2cc(C3=CC(C)(C)NC(C)(C)C3)nc3c2cnn3CCO)c(=O)[nH]1 [Compound B-146],10 to 50 µM
2,Cc1cc(CNCC2CCOCC2)c(CNC(=O)c2cccc3c2cnn3C2CCCC2)c(=O)[nH]1 [Compound D-89],10 to 50 µM
3,Cc1cc(C)c(CNC(=O)c2cc(N(C)CC(O)CO)nc3c2cnn3C(C)C)c(=O)[nH]1 (centres unmarked) [Compound B-134],3 to 10 µM
4,Cc1cc(C)c(CNC(=O)c2cc(N3CCC(N4CCOCC4)CC3)nc3c2cnn3C(C)C)c(=O)[nH]1 [Compound B-87],1 to 3 µM
5,C=C(C)c1nn(C(C)C)c2nc(-c3ccc(CN4CCOCC4)cc3)cc(C(=O)NCc3c(C)cc(C)[nH]c3=O)c12 [Compound A-94],3 to 10 µM
6,"Cc1cc(C)c(CNC(=O)c2cc(Cl)cc3c2cnn3C2CCCC2)c(=O)[nH]1 [Compound D-10, 6-chloro-1-cyclopentyl-N-((4,6-dimethyl-2-oxo-1,2-dihydropyridin-3-yl)methyl)-1H-indazole-4-carboxamide]",< 0.3 µM
7,"CCc1cc(C)[nH]c(=O)c1CNC(=O)c1cc(C2=CC(C)(C)NC(C)(C)C2)nc2c1cnn2C(C)C [Compound B-25, N-((4-ethyl-6-methyl-2-oxo-1,2-dihydropyridin-3-yl)methyl)-1-isopropyl-6-(2,2,6,6-tetramethyl-1,2,3,6-tetrahydropyridin-4-yl)-1H-pyrazolo[3,4-b]pyridine-4-carboxamide]",< 0.3 µM
8,Cc1cc(C)c(CNC(=O)c2cc(C3=CCN(C4CCNCC4)CC3)nc3c2cnn3C(C)C)c(=O)[nH]1 [Compound B-38],0.3 to 1 µM
9,Cc1cc(C)c(CNC(=O)c2cc(CNCCN(C)C)cc3c2cnn3C2CCCC2)c(=O)[nH]1 [Compound D-53],0.3 to 1 µM
10,C=C(Cn1ncc2c(C(=O)NCc3c(C)cc(C)[nH]c3=O)cc(C3=CC(C)(C)NC(C)(C)C3)nc21)C(=O)OC [Compound B-120],1 to 3 µM
11,"Cc1cc(C)c(CNC(=O)c2cc(-c3ccc(CN(C)CCCN(C)C)cc3)nc3c2cnn3C(C)C)c(=O)[nH]1 [Compound A-15, N-((4,6-dimethyl-2-oxo-1,2-dihydropyridin-3-yl)methyl)-6-(4-(((3-(dimethylamino)propyl)(methyl)amino)methyl)phenyl)-1-isopropyl-1H-pyrazolo[3,4-b]pyridine-4-carboxamide]",< 0.3 µM
12,"Cc1cc(C)c(CNC(=O)c2cc(-c3ccc(CN4CCOCC4)cn3)cc3c2cnn3C2CCCC2)c(=O)[nH]1 [Compound C-15, 1-cyclopentyl-N-((4,6-dimethyl-2-oxo-1,2-dihydropyridin-3-yl)methyl)-6-(5-(morpholinomethyl)pyridin-2-yl)-1H-indazole-4-carboxamide]",< 0.3 µM
13,Cc1cc(C)c(CNC(=O)c2cc(N3CCC(C4CCNCC4)CC3)nc3c2cnn3C(C)C)c(=O)[nH]1 [Compound B-48],0.3 to 1 µM
14,Cc1cc(C)c(CNC(=O)c2cc(C(=O)N(C)C)nc3c2cnn3C(C)C)c(=O)[nH]1 [Compound B-141],3 to 10 µM
15,Cc1cc(CN2CCC(N3CCCCC3)CC2)c(CNC(=O)c2cc(Br)cc3c2cnn3C2CCCC2)c(=O)[nH]1 [Compound D-79],1 to 3 µM
16,CCOc1ccc(S(=O)(=O)N2CCN(C)CC2)cc1-c1cc(C(=O)NCc2c(C)cc(C)[nH]c2=O)c2cnn(C3CCCC3)c2c1 [Compound C-27],< 0.3 µM
17,"Cc1cc(C)c(CNC(=O)c2cc(-c3ccc(CN4CCC[C@@H]4C(N)=O)cc3)cc3c2cnn3C2CCCC2)c(=O)[nH]1 [Compound C-13, (R)-6-(4-((2-carbamoylpyrrolidin-1-yl)methyl)phenyl)-1-cyclopentyl-N-((4,6-dimethyl-2-oxo-1,2-dihydropyridin-3-yl)methyl)-1H-indazole-4-carboxamide]",< 0.3 µM
18,Cc1cc(CN2CCN(C)CC2)c(CNC(=O)c2cc(Br)cc3c2cnn3C2CCCC2)c(=O)[nH]1 [Compound D-63],0.3 to 1 µM
19,Cc1cc(C)c(CNC(=O)c2cc(-c3ccc(CN(C)CCCN(C)C)cc3)cc3c2cnn3C2CCCC2)c(=O)[nH]1 [Compound C-17],< 0.3 µM

row,SMILES,IC50
1,C=Cc1cc(C(=O)NCc2c(C)cc(C)[nH]c2=O)c2cnn(C(C)C)c2n1 [Compound B-97],1 to 3 µM
2,"Cc1cc(C)c(CNC(=O)c2cc(C3CC(C)(C)NC(C)(C)C3)cc3c2cnn3C2CCCC2)c(=O)[nH]1 [Compound D-3, 1-cyclopentyl-N-((4,6-dimethyl-2-oxo-1,2-dihydropyridin-3-yl)methyl)-6-(2,2,6,6-tetramethylpiperidin-4-yl)-1H-indazole-4-carboxamide]",< 0.3 µM
3,"Cc1cc(C)c(CNC(=O)c2cc(-c3ccc(CN4CCOCC4)cc3)cc3c2cnn3C(C)C)c(=O)[nH]1 [Compound C-5, N-((4,6-dimethyl-2-oxo-1,2-dihydropyridin-3-yl)methyl)-1-isopropyl-6-(4-(morpholinomethyl)phenyl)-1H-indazole-4-carboxamide]",< 0.3 µM
4,Cc1cc(C)c(CNC(=O)c2cc(-c3cccnc3N3CCN(C)CC3)nc3c2cnn3C(C)C)c(=O)[nH]1 [Compound A-63],1 to 3 µM
5,COCCOCc1cc(C(=O)NCc2c(C)cc(C)[nH]c2=O)c2cnn(C3CCCC3)c2c1 [Compound D-72],1 to 3 µM
6,Cc1cc(C)c(CNC(=O)c2cc(-c3cn[nH]c3)nc3c2cnn3C(C)C)c(=O)[nH]1 [Compound A-49],1 to 3 µM
7,Cc1cc(C)c(CNC(=O)c2cc(C3=CC(C)(C)NC(C)(C)C3)nc3c2cnn3C(C)C)c(=O)[nH]1 [Compound B-36],0.3 to 1 µM
8,CCOC(=O)Cn1ncc2c(C(=O)NCc3c(C)cc(C)[nH]c3=O)cc(C3=CC(C)(C)NC(C)(C)C3)nc21 [Compound B-156],10 to 50 µM
9,Cc1ccc(-n2ncc3c(C(=O)NCc4c(C)cc(C)[nH]c4=O)cc(-c4ccc(N5CCN(C)CC5)nc4)nc32)cc1 [Compound A-65],3 to 10 µM
10,Cc1cc(C)c(CNC(=O)c2cc(-c3cccc(COCCN(C)C)c3)cc3c2cnn3C2CCCC2)c(=O)[nH]1 [Compound C-22],< 0.3 µM
11,Cc1cc(C)c(CNC(=O)c2cc(OC(C)C)nc3c2cnn3C(C)C)c(=O)[nH]1 [Compound B-104],1 to 3 µM
12,Cc1cc(C)c(CNC(=O)c2cc(N(C)C)nc3c2cnn3C(C)C)c(=O)[nH]1 [Compound B-136],3 to 10 µM
13,CC(=O)Nc1cc(C(=O)NCc2c(C)cc(C)[nH]c2=O)c2cnn(C(C)C)c2n1 [Compound B-121],1 to 3 µM
14,C=C(C)c1cc(C(=O)NCc2c(C)cc(C)[nH]c2=O)c2cnn(C(C)C)c2n1 [Compound B-93],1 to 3 µM
15,Cc1cc(C)c(CNC(=O)c2cc(-c3cccc(CN(C)CCN4CCCC4)c3)cc3c2cnn3C(C)C)c(=O)[nH]1 [Compound A-41],0.3 to 1 µM
16,Cc1[nH]c(=O)c(CNC(=O)c2cc(C3CC(C)(C)NC(C)(C)C3)nc3c2cnn3C(C)C)c(C)c1Cc1ccccc1 [Compound B-145],10 to 50 µM
17,Cc1cc(C)c(CNC(=O)c2cccc3c2cnn3C(C)C)c(=O)[nH]1 [Compound D-71],1 to 3 µM
18,"C=C(C)Cn1ncc2c(C(=O)NCc3c(C)cc(C)[nH]c3=O)cc(C3=CC(C)(C)NC(C)(C)C3)nc21 [Compound B-3, N-((4,6-dimethyl-2-oxo-1,2-dihydropyridin-3-yl)methyl)-1-(2-methylallyl)-6-(2,2,6,6-tetramethyl-1,2,3,6-tetrahydropyridin-4-yl)-1H-pyrazolo[3,4-b]pyridine-4-carboxamide]",1 to 3 µM
19,COCCNCc1cc(C(=O)NCc2c(C)cc(C)[nH]c2=O)c2cnn(C3CCCC3)c2c1 [Compound D-73],1 to 3 µM
